Data: the supplement of paper PMC4862054

Assays:
Experiment in all cases: normalised viability (% of control), CellTiter-Blue; higher = more viable cells (about 100 = DMSO control)
Settings in all cases: incubation time: 72 h
BT-474 = system: BT-474
Summary of the method: (§1)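 Seeded at 20 µl suspension per well onto compound-loaded 384-well plates, breast cancer cell lines were incubated 72 h. CellTiter-Blue fluorescence at 560/590 nm was then read, with each plate normalised to vehicle (100) and a positive kill control (0). Normalised viability is reported at a single listed concentration of the series.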

BT-549 = system: BT-549
Summary of the method: as §1

CAL-120 = system: CAL-120
Summary of the method: as §1

CAL-148 = system: CAL-148
Summary of the method: as §1

CAL-51 = system: CAL-51
Summary of the method: as §1

CAL-85-1 = system: CAL-85-1
Summary of the method: as §1

DU-4475 = system: DU-4475
Summary of the method: as §1

HCC1143 = system: HCC1143
Summary of the method: as §1

HCC1599 = system: HCC1599
Summary of the method: as §1

HCC1937 = system: HCC1937
Summary of the method: as §1

HDQ-P1 = system: HDQ-P1
Summary of the method: as §1

Hs578T = system: Hs578T
Summary of the method: as §1

MDA-MB-231 = system: MDA-MB-231
Summary of the method: as §1

MDA-MB-436 = system: MDA-MB-436
Summary of the method: as §1

MDA-MB-453 = system: MDA-MB-453
Summary of the method: as §1

MFM-223 = system: MFM-223
Summary of the method: as §1

SK-BR-3 = system: SK-BR-3
Summary of the method: as §1

Nc1ncn([C@@H]2O[C@H](CO)[C@@H](O)[C@H]2O)c(=O)n1 [Azacitidine]
normalised viability [%]
Settings	3 nM	10 nM	30 nM	100 nM	1000 nM	10000 nM
BT-474	–	104	–	–	102	95
BT-549	–	115	–	–	95.4	48.7
CAL-51	102	–	104	104	–	–
CAL-85-1	98.5	–	97.8	92.6	–	–
CAL-120	–	80.9	–	–	88.9	60.9
CAL-148	83.8	–	85.2	89.3	–	–
DU-4475	97.2	–	116	117	–	–
HCC1143	–	72.6	–	–	83.8	62.3
HCC1599	–	111	–	–	72.8	88.4
HCC1937	–	94	–	–	74.4	56.9
HDQ-P1	141	–	104	96	–	–
Hs578T	–	98.4	–	–	90.2	36
MDA-MB-231	–	81.1	–	–	85.4	69.9
MDA-MB-436	–	114	–	–	86.3	70.3
MDA-MB-453	104	–	109	102	–	–
MFM-223	–	100	–	–	95.5	59.4
SK-BR-3	–	92	–	–	106	66.6

O=C1CN2Cc3c(ccc(Cl)c3Cl)N=C2N1 [Anagrelide]
normalised viability [%]
Settings	3 nM	10 nM	30 nM	100 nM	1000 nM	10000 nM
BT-474	–	126	–	–	132	130
BT-549	–	88.7	–	–	89.1	99.4
CAL-51	110	–	96.5	84.3	–	–
CAL-85-1	102	–	84.7	97.1	–	–
CAL-120	–	91.3	–	–	91.9	86.2
CAL-148	96.5	–	102	103	–	–
DU-4475	89.5	–	79.5	96.1	–	–
HCC1143	–	83.5	–	–	87.8	83.2
HCC1599	–	112	–	–	93.1	89.3
HCC1937	–	95.6	–	–	82.5	77.8
HDQ-P1	116	–	95	99.2	–	–
Hs578T	–	101	–	–	90.9	88.2
MDA-MB-231	–	103	–	–	95.5	104
MDA-MB-436	–	79.2	–	–	97	99
MDA-MB-453	110	–	102	98.5	–	–
MFM-223	–	100	–	–	99	104
SK-BR-3	–	119	–	–	110	107

CC[C@@H]1C(=O)OC[C@@H]1Cc1cncn1C [Pilocarpine]
normalised viability [%]
Settings	12 nM	40 nM	120 nM	400 nM	4000 nM	40000 nM
BT-474	–	108	–	–	158	116
BT-549	–	95.5	–	–	114	100
CAL-51	110	–	103	98.2	–	–
CAL-85-1	98.1	–	98.3	101	–	–
CAL-120	–	85.2	–	–	107	113
CAL-148	95.5	–	101	104	–	–
DU-4475	103	–	92.1	107	–	–
HCC1143	–	87.5	–	–	90.3	88.4
HCC1599	–	104	–	–	92.2	92.8
HCC1937	–	109	–	–	107	97.4
HDQ-P1	123	–	137	118	–	–
Hs578T	–	101	–	–	102	108
MDA-MB-231	–	94.9	–	–	116	118
MDA-MB-436	–	95.6	–	–	95	104
MDA-MB-453	118	–	93.5	100	–	–
MFM-223	–	96.4	–	–	90.7	63.7
SK-BR-3	–	106	–	–	115	136
